Measurements published in patent US20150038464A1, “METHODS OF INCREASING LIGHT RESPONSIVENESS IN A SUBJECT WITH RETINAL DEGENERATION” (The United States Government as represented by the …, priority 2012, published 2015).

Tests used:
P23H rat RGCs [1] = assay: Light-evoked responses (intensity-response curves) of retinal ganglion cells recorded extracellularly from isolated P23H rat retina; format: cell-based; settings: 500 nM JNJ16259685
Method: Sprague-Dawley (SD) rats (age range 13-44 weeks) and P23H-line 1 homozygous rats (age range 23-42 weeks) were used in this study. Both the SD rats and P23H rats were bred and housed in the same facility. Breeding pairs of SD rats were obtained from Harlan Laboratories (Indianapolis, Ind.). Breeding pairs of P23H-line 1 homozygous rats were generously donated by Dr. Matthew LaVail (University of California San Francisco, Calif.). The room light was kept on a 12 hour light/dark cycle using standard fluorescent lighting. During the light cycle the illumination at the level of the cages was 100-200 lux. All animal care procedures and experimental methods were approved by the appropriate Institutional Animal Care and Use Committee.
On the day of an experiment, a rat was euthanized with sodium pentobarbital (150 mg/kg, i.p.), and the eyes were removed and hemisected under normal room light. […]
Light from a mercury arc lamp illuminated an aperture that was focused on the retina from above through the 4× objective of the microscope. The image produced on the retina was either a 250-μm or 1.5-mm diameter spot, which was centered on the recorded RGC. […] The intensity of the unattenuated light stimulus on the retina measured with a spectroradiometer (ILT900-R, International Light Technologies, Peabody, Mass.) was 8.5×10^17 photons/cm^2/s. […]

P23H rat RGCs [2] = assay: as above; format: cell-based; settings: 16 P23H rat RGCs, 500 nM JNJ16259685

## CO[C@H]1CC[C@@H](C(=O)c2ccc3nc4c(cc3c2)CCCO4)CC1 [JNJ16259685, 3,4-dihydro-2H-pyranol[2,3-b]quinolin-7-yl-(cis-4-methoxycyclohexyl)-methanone]
P23H rat RGCs [1]; 16 P23H rat RGCs (15 ON-center, one OFF-center)
  average increase in light sensitivity: 0.56 log units
P23H rat RGCs [1]; 16 P23H rat RGCs, P=0.007
  increase in maximum peak response: 9.9%
P23H rat RGCs [2]; mean±SD, before drug 0.89±0.41
  dynamic operating range with drug: 1.05±0.42 log unit
P23H rat RGCs [2]; mean±SD, before drug 162±65
  maximum peak response with drug: 178±64 spikes/s
P23H rat RGCs [2]
  factor by which the light the cells responded to was less intense than without drug: ~4 fold
P23H rat RGCs [2]; not significant (P=0.239)
  increase in dynamic operating range: 18%
